In PMC7464492, “Cisplatin Decreases ENaC Activity Contributing to Renal Salt Wasting Syndrome” (Cancers, 2020):

Biological target: T1, epithelial Na+ channel (mENaC; α-, β- and γ-mouse ENaC subunits) (Mus musculus, UniProt Q61180+Q9WU38+Q9WU39)
T1 construct: gene Scnn1a; α-, β- and γ-mouse ENaC subunits genetically linked to NH2-terminal eCFP, expressed in CHO cells; with β- and γ-ENaC subunits (Scnn1b, Scnn1g)
T1 sequence (Q61180 1-699): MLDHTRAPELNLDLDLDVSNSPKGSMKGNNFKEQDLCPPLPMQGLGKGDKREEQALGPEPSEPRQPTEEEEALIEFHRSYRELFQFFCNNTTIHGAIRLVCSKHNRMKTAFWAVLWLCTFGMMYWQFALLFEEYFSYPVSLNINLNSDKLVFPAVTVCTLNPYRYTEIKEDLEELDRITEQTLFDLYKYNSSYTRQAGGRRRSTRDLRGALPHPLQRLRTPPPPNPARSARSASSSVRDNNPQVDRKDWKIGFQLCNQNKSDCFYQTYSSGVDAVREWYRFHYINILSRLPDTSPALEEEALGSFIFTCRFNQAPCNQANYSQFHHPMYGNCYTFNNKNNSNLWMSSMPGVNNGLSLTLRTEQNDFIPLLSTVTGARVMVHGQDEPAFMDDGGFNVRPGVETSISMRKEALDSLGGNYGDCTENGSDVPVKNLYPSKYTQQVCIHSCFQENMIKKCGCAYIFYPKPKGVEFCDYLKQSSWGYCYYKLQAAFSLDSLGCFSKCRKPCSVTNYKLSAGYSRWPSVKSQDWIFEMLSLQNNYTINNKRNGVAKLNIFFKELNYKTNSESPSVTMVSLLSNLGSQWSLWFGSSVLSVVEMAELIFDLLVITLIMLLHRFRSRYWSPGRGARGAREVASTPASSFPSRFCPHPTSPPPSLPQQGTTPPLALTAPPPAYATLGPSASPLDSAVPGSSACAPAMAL
T1 sequence (Q9WU38 1-638): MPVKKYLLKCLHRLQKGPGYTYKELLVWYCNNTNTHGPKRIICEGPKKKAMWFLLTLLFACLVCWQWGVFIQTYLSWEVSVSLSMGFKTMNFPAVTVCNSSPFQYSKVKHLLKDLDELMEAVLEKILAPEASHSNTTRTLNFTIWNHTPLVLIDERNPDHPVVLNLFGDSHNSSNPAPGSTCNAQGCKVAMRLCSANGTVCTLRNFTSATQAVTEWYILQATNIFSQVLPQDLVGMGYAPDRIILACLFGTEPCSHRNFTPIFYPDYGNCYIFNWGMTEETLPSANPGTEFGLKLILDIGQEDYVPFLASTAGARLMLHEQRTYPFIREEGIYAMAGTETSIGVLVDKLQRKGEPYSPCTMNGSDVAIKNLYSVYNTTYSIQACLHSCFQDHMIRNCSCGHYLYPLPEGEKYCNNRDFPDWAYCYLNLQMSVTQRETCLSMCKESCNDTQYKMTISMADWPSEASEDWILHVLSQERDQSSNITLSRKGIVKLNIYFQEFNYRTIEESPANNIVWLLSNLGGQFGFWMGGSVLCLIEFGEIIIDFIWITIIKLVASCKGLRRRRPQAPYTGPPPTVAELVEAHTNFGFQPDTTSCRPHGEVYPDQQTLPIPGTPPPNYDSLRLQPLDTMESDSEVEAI
T1 sequence (Q9WU39 1-655): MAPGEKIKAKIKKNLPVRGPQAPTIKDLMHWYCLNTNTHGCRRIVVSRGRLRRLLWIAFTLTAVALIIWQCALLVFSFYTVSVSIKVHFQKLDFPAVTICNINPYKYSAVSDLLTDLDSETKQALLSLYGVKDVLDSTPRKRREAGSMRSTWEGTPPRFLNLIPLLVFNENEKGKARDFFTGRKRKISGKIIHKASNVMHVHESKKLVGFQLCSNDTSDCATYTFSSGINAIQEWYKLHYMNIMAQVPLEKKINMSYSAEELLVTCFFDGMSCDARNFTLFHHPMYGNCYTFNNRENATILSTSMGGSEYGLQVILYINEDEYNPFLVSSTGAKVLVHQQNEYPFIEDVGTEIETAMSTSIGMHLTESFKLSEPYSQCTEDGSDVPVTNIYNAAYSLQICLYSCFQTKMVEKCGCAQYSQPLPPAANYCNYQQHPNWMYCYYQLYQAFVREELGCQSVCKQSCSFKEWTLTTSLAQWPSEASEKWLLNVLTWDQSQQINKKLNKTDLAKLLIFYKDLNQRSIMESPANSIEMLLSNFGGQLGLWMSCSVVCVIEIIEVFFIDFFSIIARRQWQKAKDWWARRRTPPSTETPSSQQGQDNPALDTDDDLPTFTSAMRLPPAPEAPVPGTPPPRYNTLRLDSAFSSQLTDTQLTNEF
Assay: whole-cell patch clamp dose-response and competition with amiloride in CHO cells (partial inhibitor, Emax […]); direct action inferred, secondary effects not excluded
Format: cell-based

## [NH2][Pt]([NH2])([Cl])[Cl] [CDDP, cis-diamminedichloroplatinum (II)]
  IC50: 1 ± 0.18 µM
